Test results from patent US11447482B1, “Imidazopyridine and oxazolopyridine derivatives and analogs thereof, methods of preparation thereof, methods of HIF-2A pathway inhibition, and induction of ferroptosis” (KUDA Therapeutics, Inc., priority 2019, dated 2022).
Values joined by “and” are separate entries in the source; they are usually repeats but may differ in a detail not shown here. Identical values can stand only once. Like-named read-outs stand apart in the source and are kept apart here.

How the values were obtained:
[1] = system: HIF-2α transcriptional activity; test: Hypoxia-responsive element-driven luciferase (HRE-Luc) assay; assay type: cell-based, human; settings: 786-0 CCRCC cells stably expressing HRE-Luc, 24 hours treatment
Experimental: (§1) Screens for inhibitory activity of compounds described herein were performed using 786-0 CCRCC cells that stably express HRE-Luc: 5 copies of the hypoxia-responsive element (HRE) fused to the pGL3 luciferase reporter (Promega Corp, Madison Wis.). 786-0 cells are pVHL deficient and thus constitutively express HIF-2α independently of cellular oxygen tension (Maxwell, Wiesener et al. 1999). Since 786-0 cells lack HIF-1α, HRE-driven luciferase activity is primarily HIF-2α driven, and has been previously validated (Koh, Lemos et al. 2011). Cells were maintained at log phase growth in Dulbecco's […] (DMEM) with 10% FBS in a humidified incubator at 37° C. with 5% CO2. For screening assays, cells were seeded at a density of 4,000 cells in 50 μl of complete media/well in quadruplicate wells/point in a 96-well plate. 24 hours later, 50 μl of a 2× concentration of test compound was added to each well. Compounds were diluted from a 5-10 mM stock in DMSO and final concentrations of DMSO in each well in controls and treated wells were kept constant at ≤0.6% DMSO. After 24 hours' treatment, luciferase activity was measured using the Steady-Glo Luciferase assay system (Promega Corp) according to the manufacturer's protocol. Cell viability was measured in quadruplicate parallel wells using resazurin as recommended by the manufacturer (R&D systems, Minneapolis, Minn.). Data for luciferase and resazurin were normalized to DMSO treated controls (defining 100%) and wells containing assay reagent but no cells (defining 0%), and graphed using the log inhibitor versus normalized response option in Prism7 Graphpad software. Representative data determined using Steady-Glo luciferase and resazurin are shown in FIGS. 1A and 1B respectively, with error bars showing standard error of the mean (SEM).

recombinant ISCA2 = target: T1, recombinant ISCA2 (Homo sapiens, UniProt Q86U28); test: Thermal shift assay (SYPRO Orange); assay type: binding
T1 construct: His6 (N); made in house
T1 sequence (Q86U28 9-154): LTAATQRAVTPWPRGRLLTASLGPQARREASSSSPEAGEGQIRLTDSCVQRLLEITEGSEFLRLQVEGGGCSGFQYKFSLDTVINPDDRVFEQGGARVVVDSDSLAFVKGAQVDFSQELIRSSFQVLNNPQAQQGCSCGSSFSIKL
Experimental: Thermal shift assays were performed by monitoring the change in protein melting temperature (Tm) in the absence or presence of test compounds, using the hydrophobic protein binding dye, SYPRO Orange (S6650, Thermo Fisher Scientific, Waltham, Mass.), measured using the LightCycler 480 (Roche Life Sciences, Indianapolis, Ind.) according to the manufacturer's protocol. Recombinant ISCA2 was produced by expressing amino acid residues 9-154 of ISCA2 (ISCA2 lacking its mitochondrial localization sequence) in the pET28 vector containing an N-terminal His6 tag in Rosetta (DE3) competent cells (Novagen, Millipore Sigma). ISCA2 production was induced by treating ISCA2 transformed log phase cells with 0.25 mM IPTG for 4 hours at 18° C. ISCA2 was purified using Ni^2+ affinity purification according to standard protocols and eluted in 50 mM Tris-Cl pH7.4, 150 mM NaCl, 5 mM DTT. Thermal shift assays were performed in 384-well plates using 1 μl of a 10× concentration of SYPRO Orange, 8 μl of ISCA2 (4 μg protein) and 1 μl of 1-2 mM stock of test compound per well. The LightCycler was used according to the following setup: LightCycler 480 Instrument Temperature Setup: First target of 20° C., with a Hold of 15 seconds; second target of 95° C., with Acquisition Mode of Continuous, and 10 acquisitions per degree C.; and third target of 20° C., with a Hold of 15 seconds. Tms were determined using Roche Protein Melting Analysis Software. Representative data are shown in FIGS. 7 and 8 using KD001 at 200 μM final concentration and KD025 at 100 μM final concentration respectively. Part A in these figures show the changes in fluorescence with increasing temperature in control (grey traces), or treated (black traces) wells. Part B show the ratio of changes in fluorescence (dF) with changes in temperature (dT), given by dF/dT, the peak of which indicates the melting temperature of ISCA2 under these assay conditions. In these examples, for KD001 in FIG. 7, the average Tm readings for control wells was 53.21±0.36° C. (replicate readings were 53.92, 52.83, 52.90), whereas Tm readings for KD001-treated wells were 55.63±0.26° C. (replicate readings were 55.10, 55.92, 55.96). Thus, treatment with KD001 results in a change in melting temperature of ISCA2 (dTm) of 2.41±0.44° C., with a Student's t-test p-value of 0.005. For KD025 in FIG. 8, the average Tm readings for control wells was 55.02±0.2° C. (replicate readings were 55.42, 54.83, 54.81), whereas Tm readings for KD025-treated wells were 56.3±0.02° C. (replicate readings were 56.33, 56.3, 56.27). Thus, treatment with KD025 results in a change in melting temperature of ISCA2 (dTm) of […], with a Student's t-test p-value of 0.003.

786-0 CCRCC cells [2] = test: Resazurin cell viability assay, with or without deferoxamine; assay type: cell-based, human; settings: 24 hours; for IC50: 786-0 CCRCC cells, resazurin; for ratio of resazurin IC50 to HRE-Luc IC50: 786-0 HRE-Luc cells, data of FIG. 1
Experimental: as §1
In view of the increased cellular iron concentrations induced by the compounds described herein, the involvement of iron in mediating cell death was determined. Cell viability assays were performed as described in Example 2 using resazurin as a cell viability readout, and performed in the absence or presence of 100 μM of the iron chelator, deferoxamine (D9533, MilliporeSigma, St Louis, Mo.). […] The data support an iron-dependent mechanism of cell death, or feroptosis.

786-0 CCRCC cells [3] = test: ICP-MS of cellular iron, zinc and copper; assay type: cell-based, human; settings: 786-0 cells, 24 hours, 1.5 μM KD002 or KD021, 2.5 μM KD025HCl, versus DMSO
Experimental: These studies were performed to determine the content of iron and other transition metals in cells after exposure the compounds described herein. 786-0 cells were seeded at 1.5 million cells/flask in T75 cm^2 flasks in DMEM+10% FBS, and allowed to adhere overnight. Cells were then treated with indicated concentrations of compounds in DMSO or DMSO alone (vehicle) for a further 24 hours, after which cells were detached by trypsinization, counted, washed twice in PBS and pelleted. Experiments were performed using three replicate T75 cm^2 flasks per condition. A 5:1 mixture of nitric acid (OPTIMA Grade, 70%, Fisher Scientific) and ultrapure hydrogen peroxide (ULTREX II, 30%, Fisher Scientific) was added to cell pellets. This mixture was allowed to digest overnight, heated until dry, and resuspended in 2% nitric acid for analysis using an Agilent 7900 ICP-MS (Agilent Technologies, Santa Clara, Calif.). Calibration standard solutions for determination of Fe were prepared from Agilent multi-element calibration standard-2A. An Agilent Environmental Calibration Standard was used as an independent control. PBS-only control digestions were used to measure background. Metal readings were normalized to cell number. Data obtained from these studies for three replicate readings (with SEM) are shown in FIG. 4, which show an increase in cellular iron (Fe) content after treatment with indicated compounds.

HIF-2α = test: Western blot of treated 786-0 cells: HIF-2α; assay type: cell-based, human; settings: 786-0 CCRCC cells, 24 hours
Experimental: (§2) Western blots were performed to determine the effects of the compounds on levels of HIF-2α and other relevant proteins. 786-0 (pVHL deficient clear cell kidney cancer cells) were purchased from ATCC were plated at 1×10E5 cells/well in 2 ml DMEM with 10% FBS/well in 6-well tissue culture plates. Cells were allowed to adhere overnight in a humidified incubator at 37° C. with 5% CO2, after which the appropriate concentrations of compounds in DMSO were added. DMSO concentrations were kept constant in all wells. After 24 hour's exposure to the compounds, cells were lysed and subjected to western blotting according to standard protocols (Polek, Talpaz et al. 2003). Antibodies for HIF-2α and Glyceraldehyde 3-Phosphate Dehydrogenase (GAPDH) were purchased from Cell Signaling Technology (Danvers, Mass.), whereas antibodies to iron responsive element binding protein 2 (IRP2) and Glutathione Peroxidase 4 (GPX4) were from Santa Cruz Biotechnology (Dallas, Tex.) and R&D Systems, Inc (Minneapolis, Minn.). Representative data in FIG. 3 show a dose-dependent effect of compounds in decreasing HIF-2α. Compounds also impact cellular iron sensing given by increased IRP2, which taken together indicate that cells sense decreased amounts of available iron. Representative data shown in FIG. 5 Part C show a dose dependent effect of the compounds on GPX4, which may indicate decreased resistance to ferroptosis.

IRP2 = test: Western blot of treated 786-0 cells: IRP2; assay type: cell-based, human; settings: 786-0 CCRCC cells, 24 hours
Experimental: as §2

[4] = system: CMV-driven luciferase in 786-0 cells; test: CMV-Luciferase counter-screen (constitutive luciferase); assay type: cell-based, human; settings: 786-0 CMV versus 786-0 HRE cells, data of FIG. 2
Experimental: Since it is possible that non-specific inhibitors of luciferase activity and/or translation may produce false-positives in our HRE-luciferase screens, counter-screens were performed using 786-0 cells that stably express a constitutively expressed luciferase construct. 786-0 cells stably expressing CMV-driven luciferase were generated using the pGL4.50 (luc2/CMV/Hygro) vector (Promega Corp) according to the manufacturers' protocol. 786-0 HRE and 786-0 CMV were seeded in 96-well plates and were screened according to the HRE-Luc assay protocol described in Example 2. Luciferase activity following compound treatment was determined using Steady Glo luciferase. Representative data are shown in FIG. 2, wherein A, B and C refer to treatments with KD02, KD007 and KD021 respectively. Filled circles indicate results from 786-0 HRE cells, whereas empty squares indicate results from 786-0 CMV cells.

## COc1ccc(-c2nnc(Nc3nc4c(OC)nccc4[nH]3)o2)cc1OC [KD025, N-(4-Methoxy-1H-imidazo[4,5-c]pyridin-2-yl)-5-(3,4-dimethoxyphenyl)-1,3,4-oxadiazol-2-amine]
[1]; Homo sapiens
  IC50: 1.13 µM
Recombinant ISCA2; 100 μM compound
  Tm of ISCA2 in treated wells, replicate readings: 56.33 °C and 56.3 °C and 56.27 °C
Recombinant ISCA2; 100 μM compound, p-value 0.003
  change in melting temperature of ISCA2 (dTm): 1.21±0.20 °C
Recombinant ISCA2; 100 μM compound, p-value 0.003, read-out: change in melting temperature of ISCA2 (dTm)
  ΔTm at 100 µM: 1.21 ± 0.2 °C
Recombinant ISCA2; 100 μM compound, control wells 55.02±0.2
  Tm of ISCA2 in treated wells (average): 56.3±0.02 °C

## COc1ccc(-c2nnc(Nc3nc4c(OC)nccc4[nH]3)o2)cc1 [KD021, N-(4-methoxy-1H-imidazo[4,5-c]75yridine-2-yl)-5-(4-methoxyphenyl)-1,3,4-oxadiazol-2-amine]
786-0 CCRCC cells [2]; with 100 μM deferoxamine (DFO), read-out: cell viability IC50 in the presence of DFO
  IC50: 83.6 µM
786-0 CCRCC cells [2]; without DFO, read-out: cell viability IC50
  IC50: 11.4 µM
786-0 CCRCC cells [2]
  ratio of resazurin IC50 to HRE-Luc IC50: 2.75
[1]
  IC50: 1.4 µM
786-0 CCRCC cells [3]
  cellular copper (Cu) content (ICP-MS): increases
  cellular iron (Fe) content (ICP-MS): increases
  cellular zinc (Zn) content (ICP-MS): increases

## COc1nccc2[nH]c(Nc3nnc(-c4ccc(F)cc4)o3)nc12 [KD002, 5-(4-Fluorophenyl)-N-(4-methoxy-1H-imidazo[4,5-c]pyridin-2-yl)-1,3,4-oxadiazol-2-amine]
HIF-2α
  HIF-2α protein relative to GAPDH (western blot): decreases
786-0 CCRCC cells [2]
  ratio of resazurin IC50 to HRE-Luc IC50: 39.05
[1]; Homo sapiens
  IC50: 1.56 µM
IRP2
  IRP2 protein relative to GAPDH (western blot): increases
786-0 CCRCC cells [3]
  cellular copper (Cu) content (ICP-MS): increases
  cellular iron (Fe) content (ICP-MS): increases
  cellular zinc (Zn) content (ICP-MS): increases
[4]
  ratio of CMV-Luc IC50 to HRE-Luc IC50: 7.9

## COc1cccc2sc(Nc3nnc(-c4ccc(F)cc4)o3)nc12 [KD001, 5-(4-fluorophenyl)-N-(4-methoxybenzo[d]thiazol-2-yl)-1,3,4-oxadiazol-2-amine]
HIF-2α
  HIF-2α protein relative to GAPDH (western blot): decreases
[1]; Homo sapiens
  IC50: 3.21 µM
Recombinant ISCA2; 200 μM compound
  Tm of ISCA2 in treated wells, replicate readings: 55.10 °C and 55.92 °C and 55.96 °C
Recombinant ISCA2; 200 μM compound, p-value 0.005
  change in melting temperature of ISCA2 (dTm): 2.41±0.44 °C
Recombinant ISCA2; 200 μM compound, p-value 0.005, read-out: change in melting temperature of ISCA2 (dTm)
  ΔTm at 200 µM: 2.41 ± 0.44 °C
Recombinant ISCA2; 200 μM compound, control wells 53.21±0.36
  Tm of ISCA2 in treated wells (average): 55.63±0.26 °C
IRP2
  IRP2 protein relative to GAPDH (western blot): increases

## Fc1ccc(-c2nnc(Nc3nc4ncccc4o3)o2)cc1 [KD007, N-(5-(4-Fluorophenyl)-1,3,4-oxadiazol-2-yl)oxazolo[4,5-b]pyridin-2-amine]
786-0 CCRCC cells [2]
  ratio of resazurin IC50 to HRE-Luc IC50: 3.2
[1]; Homo sapiens
  IC50: 3.16 µM
[4]
  ratio of CMV-Luc IC50 to HRE-Luc IC50: 4.75 and 2.6
